Source: patent US10597674B2, “HPPD variants and methods of use” (BASF Agricultural Solutions Seed, US LLC, priority 2015, dated 2020)

Experiments:
[1] = tested on: E. coli cells expressing an HPPD polypeptide; assay: Brown color bioassay in liquid culture, residual brown color formation (BCF), OD440 after 96 hours; type: cell-based
In short: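 E. coli expressing HPPD variants were grown at 30 degrees Celsius from OD600 0.3-0.5 in LB with 5 mM HPP, with or without herbicide (e.g. Cmpd. 1, 1000 μM). After 96 hours, supernatant OD440 was measured; residual brown colour formation compares pigment with and without inhibitor.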

[2] = tested on: transgenic soybean T0 events; assay: Greenhouse spray test of T0 soybean events, herbicide tolerance rating 0-3; type: in vivo; details: wild-type soybean plants, 300 g AI/ha, 5 days after spraying
Method: Tolerant green shoots were transferred to rooting media or grafted. Rooted plantlets were transferred to the greenhouse after an acclimation period. Plants containing the transgene were then sprayed with HPPD inhibitor herbicides, as for example with mesotrione at a rate of 300-600 g AI/ha, or with Cmpd. […] Five to ten days after the application, the symptoms due to the application of the herbicide were evaluated and compared to the symptoms observed on wild-type plants under the same conditions.
For example, T0 soybean plants having a “plant expression cassette”, which includes an HPPD inhibitor tolerant HPPD polypeptide of the present invention, were tested towards the tolerance of Cmpd. 1.
Prior greenhouse trials with the transgenic plants, soybean transformants were routinely analyzed for the expression and presence of the transgenes using the ELISA protein detection method (see detailed description under item D and H). Only plants recovering in the selection media and having a detectable HPPD transgene protein expression were used for the herbicide tolerance analysis. A DeVries Tracker Sprayer was calibrated prior to each spraying. The chemical formulation used for Cmpd. 1 was supplemented with ammonium sulfate and methylated rape seed oil. Spray tests were conducted with a concentration, which equals to 300 grams AI per hectare (300 g AI/ha). Tolerance was evaluated 5 days after spraying. […] A rating of “3” was assigned to plants showing good tolerance, i.e. less than 10% of the leaf area from the top three trifoliate leaves showing chlorosis or only very slight bleaching.

[3] = tested on: transgenic soybean T0 events; assay: Additional greenhouse trials of T0 soybean events, leaf damage score 0-100 as percentiles; type: in vivo; details: wild-type plants, 300 g AI/ha, five days, scale 0-100
In short: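 Independent T0 events (21 to 94 per construct, single cassette insertion) expressing mutant HPPD were sprayed with HPPD inhibitor herbicide in the greenhouse. Leaf damage scored 5 days after application from 0 (no damage) to 100 (complete bleaching). Scores reported as percentile distributions (25th, median, 75th) per construct.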

For `CSc1c(C(F)(F)F)ccc(C(=O)Nc2nnnn2C)c1Cl` [Cmpd. 1, 2-chloro-3-(methylsulfanyl)-N-(1-methyl-1H-tetrazol-5-yl)-4-(trifluoromethyl)benzamide, reference compound], the “Control BCF OD440nm” value ([1]; brown color formation in absence of Cmpd. 1, culture supernatant after 96 hours, 5 mM HPP) was 2.66, the “Residual BCF OD440nm [%]” value ([1]; brown color formation with Cmpd. 1 (1000 μM) relative to without, after 96 hours) was 15% and the “leaf damage of the top two trifoliate leaves” value [2] was “more than 95%”. The damage score [3] was 95-100.
